According to patent EP0326331B1, “Substituted quinolines and cinnolines” (Dow AgroSciences LLC, priority 1988, dated 1989):

Legend:
Format in all cases: in vivo
[1] = test system: Twospotted spider mites (Tetranychus urticae Koch); test: Mite/insect screen, SM; details: Tetranychus urticae, foliar, percent mortality, foliar spray on squash, read-out: SM RESULTS %; for mortality at 200 ppm: rate 200 ppm; for mortality at 400 ppm: rate 400 ppm
Outline: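 Read-out: percent mortality after standard exposure periods. Test solutions were water dilutions of compound dissolved in acetone/alcohol (50:50) with emulsifier blends; leaves were sprayed to runoff on both surfaces and air-dried for one hour before exposure.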

[2] = test system: Pyricularia oryzae (rice blast); test: whole plant or invertebrate; details: Pyricularia oryzae, foliar, read-out: RICE BLAST, Test 1, foliar spray on rice; disease control rating at 400 ppm / 100 ppm
[3] = test system: corn rootworm; test: Mite/insect screen, CRW; details: percent mortality, read-out: CRW RESULTS %; for mortality at 12 ppm: CRW rate 12.00 ppm; for mortality at 24 ppm: CRW rate 24.00 ppm
Outline: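 Stock in acetone:alcohol 1:1 + TOXIMUL R 23 g/L + TOXIMUL S 13 g/L; diluted with water to indicated concentrations; mortality (%) after standard exposure.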

[4] = test system: southern armyworm (Spodopetra eridania Cramer); test: Mite/insect screen, SAW; details: Spodoptera eridania, foliar, percent mortality, foliar spray on squash, read-out: SAW RESULTS %; for mortality at 200 ppm: rate 200 ppm; for mortality at 400 ppm: rate 400 ppm
Outline: (§1)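 First, each compound was dissolved in an emulsifier-containing acetone/alcohol mixture and diluted with water. Next, leaves were sprayed until runoff and left to dry for an hour. For southern armyworm, two excised uninfested leaves went into a Petri dish with larvae; percent mortality followed standard exposure periods.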

[5] = test system: melon aphids (Aphis gossypii Glover); test: Mite/insect screen, MA; details: Aphis gossypii, foliar, percent mortality, foliar spray on squash, read-out: MA RESULTS %; for mortality at 200 ppm: rate 200 ppm; for mortality at 400 ppm: rate 400 ppm
Outline: as §1

[6] = test system: Puccinia recondita tritici (leaf rust); test: Test 1 greenhouse foliar spray screen, leaf rust on wheat; details: Puccinia recondita, foliar, Test 1, foliar spray on wheat; disease control rating at 400 ppm / 100 ppm
[7] = test system: Erysiphe graminis tritici (powdery mildew); test: Test 1 greenhouse foliar spray screen, powdery mildew on wheat; details: Blumeria graminis, foliar, Test 1, foliar spray on wheat; disease control rating at 400 ppm / 100 ppm; read-out: POWD MDEW
[8] = test system: Botrytis cinerea (gray mold); test: Test 1 greenhouse foliar spray screen, gray mold on grape berries; details: Botrytis cinerea, foliar; Test 1, spray on grape berries; disease control rating at 400 ppm / 100 ppm
[9] = test system: Pseudoperonospora cubensis (downy mildew); test: Test 1 greenhouse foliar spray screen, downy mildew on squash; details: Pseudoperonospora cubensis, foliar, Test 1, foliar spray on squash; disease control rating at 400 ppm / 100 ppm; read-out: DOWN MDEW

SMILES | mortality at 200 ppm [1] | mortality at 400 ppm [1] | pest or weed control at 400 ppm [2] | mortality at 12 ppm [3] | mortality at 24 ppm [3] | mortality at 200 ppm [4] | mortality at 400 ppm [4] | mortality at 200 ppm [5] | mortality at 400 ppm [5] | pest or weed control at 400 ppm [6] | pest or weed control at 400 ppm [7] | pest or weed control at 400 ppm [8] | pest or weed control at 400 ppm [9]
CC(CNc1ccnc2cc(Cl)ccc12)c1ccc(Cl)cc1 (stereo not drawn) [Example 283, 7-chloro-N-[2-(4-chlorophenyl)propyl]-4-quinolinamine] | 0% | 80% | 20 to 89% | 0% | 0% | 0% | 0% | 80% | 0% | 90 to 100% | 20 to 89% | 0 to 19% | 90 to 100%
Fc1cccc2c(OCCCC(Br)CBr)ccnc12 (stereo not drawn) [Example 284, 4-[(4,5-dibromopentyl)oxy]-8-fluoroquinoline] | 0% | 0% | 90 to 100% | 0% | 0% | 0% | 0% | 0% | 0% | 90 to 100% | 0 to 19% | 0 to 19% | 20 to 89%
Fc1cccc2c(OCCCCCCCCOc3ccccc3)ccnc12 [Example 285, 8-fluoro-4-[(8-phenoxyoctyl)oxy]quinoline] | 40% | 0% | 0 to 19% | 0% | 0% | 0% | 0% | 80% | 0% | 0 to 19% | 0 to 19% | 0 to 19% | 0 to 19%
Cc1cc(OCCc2ccc(C(C)(C)C)cc2)c2cc(Cl)ccc2n1 [Example 286, 6-chloro-2-methyl-4-[2-[4-(t-butyl)phenyl]ethoxy]quinoline] | 0% | 0% | 0 to 19% | 0% | 0% | 0% | 0% | 0% | 0% | 20 to 89% | 20 to 89% | 0 to 19% | 0 to 19%
Fc1cccc2c(OCCCCCCOc3ccccc3)ccnc12 [Example 287, 8-fluoro-4-[(6-phenoxyhexyl)oxy]quinoline] | 0% | 0% | 0 to 19% | 0% | 0% | 0% | 0% | 80% | 0% | 20 to 89% | 0 to 19% | 0 to 19% | 90 to 100%
CC(C)(CNc1ccnc2c(Cl)cccc12)c1ccccc1 [Example 288, 8-chloro-N-(2-methyl-2-phenylpropyl)-4-quinolinamine] | 0% | 0% | 20 to 89% | 0% | 0% | 0% | 0% | 0% | 0% | 0 to 19% | 0 to 19% | 0 to 19% | 20 to 89%
CC(C)(CNc1ccnc2c(F)cccc12)c1ccccc1 [Example 289, 8-fluoro-N-(2-methyl-2-phenylpropyl)-4-quinolinamine] | 0% | 0% | 90 to 100% | 0% | 0% | 0% | 0% | 0% | 0% | 90 to 100% | 20 to 89% | 0 to 19% | 90 to 100%
COc1ccc2nc(C)cc(NCCc3cccc(Oc4ccccc4)c3)c2c1 [Example 290, 6-methoxy-2-methyl-N-[2-(3-phenoxyphenyl)ethyl]-4-quinolinamine] | 80% | 0% | 90 to 100% | 0% | 0% | 0% | 0% | 80% | 0% | 20 to 89% | 0 to 19% | 0 to 19% | 90 to 100%
Fc1cccc2c(NCCc3ccc(OCc4ccccc4)cc3)ccnc12 [Example 291, 8-fluoro-N-[2-[4-(phenylmethoxy)phenyl]ethyl]-4-quinolinamine] | 0% | 0% | 90 to 100% | 0% | 0% | 0% | 0% | 100% | 0% | 90 to 100% | 90 to 100% | 0 to 19% | 90 to 100%
Fc1ccc2c(OCCOc3ccc(Br)cc3)ccnc2c1 [Example 292, 7-fluoro-4-[2-(4-bromophenoxy)ethoxy]quinoline] | 0% | 0% | 0 to 19% | 0% | 0% | 0% | 0% | 30% | 0% | 0 to 19% | 0 to 19% | 0 to 19% | 0 to 19%
Oc1ccc(CCNc2ccnc3c(F)cccc23)cc1 [Example 293, N-[2-(4-hydroxyphenyl)ethyl]-8-fluoro-4-quinoline] | 0% | 0% | 0 to 19% | 0% | 0% | 0% | 0% | 0% | 0% | 90 to 100% | 0 to 19% | 0 to 19% | 0 to 19%
Fc1cccc2c(OCCCc3cccc(C(F)(F)F)c3)ccnc12 [Example 294, 8-fluoro-4-[3-[3-(trifluoromethyl)phenyl]propoxy]quinoline] | 0% | 0% | 0 to 19% | 0% | 0% | 0% | 0% | 0% | 0% | 0 to 19% | 0 to 19% | 0 to 19% | 0 to 19%
